Measured values as given in US11998610B2, “Conjugates and methods of using the same” (Flagship Pioneering Innovations V, Inc., priority 2018, dated 2024).
Non-standard residues stand in square brackets, D forms with d. Residues, ends and D or L forms follow the SMILES beside them. *: point of attachment. Octanoyl = CCCCCCCC(=O)*; Bz = O=C(c1ccccc1)*

Tests used:
WT ClbP = experiment: Assay with purified ClbP protein (LCMS); type: biochemical, E. coli; settings: 20 μM WT ClbP, room temperature, 24 h
Description: This example is representative of the method described in Example 91 the soluble peptidase domain (amino acids 38 to 375) of ClbP or the catalytically inert mutant S95A was cloned into pET28a using previously defined boundaries as a starting point (Brotherton, J. Am. Chem. Soc., 135:3359-3362, 2013).
WT ClbP or S95A ClbP was isolated as an N-terminally tagged HiS6-SUMO1-fusion protein from […] using E. coli BL21(DE3)RIPL to express the protein. The cells were lysed in 30 mM Tris pH 8.0, 300 mM NaCl, 10% (v/v) glycerol, benzonase (Sigma-Millipore), lysozyme, B-per (ThermoFisher), and Y-per (ThermoFisher). The lysate was clarified via centrifugation (13,000 g, 20 min), and the supernatant was incubated with HiBond Ni-NTA agarose (5 mL). The resin was subsequently washed with wash buffer (30 mM Tris pH 7.5, 250 mM NaCl, 10 mM imidazole, 3% (v/v) glycerol, and 2 mM TCEP). The resin was incubated at 30° C. for 1 h with 1.4 mg ULP1 protease. The resin was then washed with an additional fraction of wash buffer. Centrifuge filtration was used to concentrate the protein, and the concentrated protein was subsequently applied to a 16/600 Superdex 200 size exclusion column with an isocratic elution of 25 mM HEPES, 25 mM Tris pH 7.4, 325 mM NaCl, 10 mM KCl and 3% (v/v) glycerol at a flow rate of […]. The fractions containing the protein were determined by SDS-PAGE, combined, and concentrated by centrifuge filtration. 3 mM TCEP was added to the concentrated protein, which was then aliquoted, flash frozen in liquid N2, and stored at −80° C.
This example is representative of the method described in Example D, ClbP was incubated with test compounds in an in vitro assay. In a typical assay, 0, 1, or 20 μM purified WT or S95A ClbP was incubated with 100 or 500 μM compound in reaction buffer (50 mM Tris-HCl pH 7.5, 37.5 mM NaCl) at room temperature for 24 h. The total volume of this reaction was 150 μL.
After 24 h, 2 volumes of acetonitrile (300 μL) were added to the reaction to quench the solution.
The reaction was centrifuged (4,000 g, 15 min), and then the supernatant was analyzed by LCMS. 5 μL of the supernatant was injected onto an Acquity UPLC BEH C18 1.7 μm 2.1×100 column. Buffer A was 0.1% (v/v) formic acid in water and buffer B was 0.1% (v/v) formic acid in acetonitrile. The flow rate was 0.5 mL/min. The initial % B was 10, which was held for 30 s then ramped up to 90% B over 3 min, held at 90% B for 1 min, ramped down to 10% B over 15 s, and then held at 10% B for 15 s. The UV-Vis spectrum from 210-400 nm was monitored with 3.6 nm resolution. Positive and negative mode ESI were monitored from 100-1000 m/z with a 20 V cone voltage at 5 Hz sampling frequency in centroid collection.
The relative starting material remaining in the WT ClbP reaction was determined by LCMS and then compared to the residual starting material in the no-enzyme and catalytically inert enzyme (S95A ClbP) reactions. In an ideal case, the amount of residual starting material in the WT ClbP reaction was <25% of the amount in the S95A ClbP and no-enzyme conditions. In an acceptable case, the amount of residual starting material in the WT ClbP reaction was 25-75% of the amount in the S95A ClbP and no-enzyme conditions. In a non-preferred case, the amount of residual starting material in the WT ClbP reaction was >75% of the amount in the S95A ClbP and no-enzyme conditions.
Formation of the anticipated product was likewise quantified by LCMS analysis and confirmed by coelution with an external product standard. In an ideal case, the amount of product formed in the WT ClbP reaction corresponded to >75% of the theoretical maximum. In an acceptable case, the amount of product formed in the WT ClbP reaction corresponded to 25-75% of the theoretical maximum. In a non-preferred case, the amount of product formed in the WT ClbP reaction corresponded to <25% of the theoretical maximum.

[1] = In vitro Colonic Material Stability Assay; type: in vitro ADME; settings: colonic material slurry, anaerobic, 1 or 10 μM, 24 h
Outline: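 Compounds were added at 1 or 10 μM final to colonic material slurry (6.7 μL of 15% w/v slurry per 1 mL YCFAC or similar medium). Samples taken at 0–2880 min were acetonitrile-quenched and the remaining compound quantified by LC/MS.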

[2] = tested on: E. coli CFT073 ATCC 700928 and/or E. coli Nissle 1917; experiment: Cell-based assay with ClbP with LCMS, ClbP positive strain; settings: for % Remaining in ClbP Positve Relative to Media-Only: ClbP-encoding E. coli, 10 μM compound, 37° C., 20 h
Outline: (§1)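 Compound (10 μM final) incubated 20 h at 37° C, aerobically, with 1:40-diluted overnight cultures of ClbP-positive E. coli or negative BL21(DE3), in duplicate, alongside uninoculated LB. Remaining parent quantified by LC-MS/MS (MRM) after acetonitrile quench, expressed as percent of media-alone.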

E. coli BL21(DE3) = experiment: Cell-based assay with ClbP with LCMS, ClbP negative strain; settings: 10 μM compound, 37° C., 20 h
Outline: as §1

CT26.CL25 cells = experiment: Cell viability readout (CellTiter-Glo) with bacteria-free media; type: cell-based, mouse; settings: 72 h
Description: Example 100: Cell-Based Assay of Bacterial Enzymes with Mammalian CT26.CL25 Mouse Colorectal Carcinoma Viability Readout
Bacteria-free media was incubated with the indicated test compound. ((R)—N1-(2-(methylamino)ethyl)-2-octanamidosuccinamide, a recognition element-linker conjugate lacking a payload, was serially diluted 1:1000 in DMSO and […] in medium+10% FBS to give a final concentration of 10 nM. Compound 35, Compound 76, Compound 77, Compound 78, Compound 79, and SN-38 were serially diluted 1:1000 in DMSO and 1:1000 in medium to give a final concentration of 10 nM, and then the bacteria-free supernatants were tested for their ability to kill mammalian cells. As an additional control, the test compound will also be incubated with bacteria-free media. The above steps can also be performed in the presence of E. coli (CFT073 ATCC 700928, Nissle 1917, or BL21 (DE3)) to effect cleavage of the conjugates of the application.
On Day 1, CT26.CL25 cells (15,000 cells/well) were seeded in triplicate into a 24 well plate and incubated overnight in 100 μL of complete medium. The reactions (bacteria or media blank) was pelleted by centrifugation, and then the supernatant was passed through a 0.2 μm sterile filter to remove residual bacteria.
On Day 2, 300 μL of a 10 nM solution of each compound in media were applied to separate wells of CT26.CL25 cells as prepared on Day 1. The cells were incubated at 37° C. for 72 h. After this point, viability was assessed using a CellTiter-Glo kit.
Binning of the compounds was achieved by measuring cell growth or arrest (e.g. remaining cells are >90% viable, >80% viable, >70% viable, >60% viable, >50% viable, >40% viable, >30% viable, >20% viable, or >10% viable).

[3] = Stability of conjugates in Simulated Gastric Fluid (SGF); type: in vitro ADME; settings: simulated gastric fluid pH 1.6 with pepsin, 1 μM, 37° C.
Description: Assay 1. Stability of conjugates in Simulated Gastric Fluid (SGF). This assay was used to assess the stability of a conjugate in a stomach. Medium was prepared by dissolving 2 g of sodium chloride in 0.6 L in ultrapure water (MilliQ®, Millipore Sigma, Darmstadt, Germany). The pH was adjusted to 1.6 with 1N hydrochloric acid, and the volume was then adjusted to 1 L with purified water. 60 mg FaSSIF powder (Biorelevant™, London, UK) were dissolved in 500 mL buffer (above). Pepsin was added (0.1 mg/mL) (Millipore Sigma, Darmstadt, Germany), and the solution was stirred. The resulting SGF media were used fresh for each experiment. Test compounds were dissolved in DMSO stock to 1 mM. An aliquot of the DMSO stock solution was removed and diluted in the SGF Media in 15 mL falcon tubes to generate a total compound concentration of 1 μM. A 1 mL aliquot was immediately removed and diluted once with 1 volume of acetonitrile for T0 timepoint. The mixture was sealed and mixed at 37° C. in an incubator. Aliquots (1 mL) were removed at regular intervals and immediately quenched by the addition of 1 volume of acetonitrile. The resulting samples were analyzed by LC/MS to determine degradation rates in SGF.

[4] = Stability of conjugates in Simulated Intestinal Fluid (SIF); type: in vitro ADME; settings: simulated intestinal fluid pH 6.7 with pancreatin, 1 μM, 37° C.
Description: Assay 2. Stability of conjugates in Simulated Intestinal Fluid (SIF). This assay was used to assess the stability of a conjugate in a small intestine. Phosphate buffer was prepared by dissolving 0.42 g of sodium hydroxide pellets and 3.95 g of monobasic sodium phosphate monohydrate and 6.19 g of sodium chloride in ultrapure water (MilliQ®, Millipore Sigma, Darmstadt, Germany). The pH was adjusted to 6.7 using aq. HCl and aq. NaOH, as necessary, and the solution was diluted with ultrapure water to produce 1 L of the pH 6.7 buffer. 112 mg FaSSIF powder (Biorelevant™, London, UK) was dissolved in 50 mL of the pH 6.7 buffer. 2 to 3 mL of the resulting solution were then added to 500 mg pancreatin (Millipore Sigma, Darmstadt, Germany). The resulting mixture was agitated by finger tapping the vessel containing the mixture until milky suspension formed. At this time, the remainder of the 50 mL FaSSiF/pH 6.7 buffer solution was added. The resulting suspension was flipped upside down 10 times to produce SIF, which was used fresh. Test compounds were dissolved in DMSO stock to 1 mM. An aliquot of the DMSO stock solution was removed and diluted in the SIF media in 15 mL falcon tubes to produce a mixture with a tested compound concentration of 1 μM. A 1 mL aliquot was immediately removed and diluted once with 1 volume of acetonitrile for T0 timepoint. The mixture was sealed and agitated at 37° C. in an incubator. Aliquots (1 mL) were removed at regular intervals and immediately quenched by the addition of 1 volume of acetonitrile. The resulting samples were analyzed by LC/MS to determine degradation rates

CCCCCCCC(=O)N[C@H](CC(=O)O)C(=O)N[C@@H](C)C(=O)OC [Example 8, (R)-4-(((S)-1-methoxy-1-oxopropan-2-yl)amino)-3-octanamido-4-oxobutanoic acid] (Octanoyl-[dD]-Ala-OMe)
Status (compound remaining in WT ClbP reaction relative to no-enzyme control) (WT ClbP; 500 μM compound): − (>75% compound remaining in the 20 μM WT ClbP reaction relative to the no-enzyme control)
Assay 3 (% Remaining at 24 h) [1]: B (25-75% of the tested compound remaining)
% Remaining in ClbP Positve Relative to Media-Only [2]: − (>75% compound remaining in the 20 μM WT ClbP reaction relative to the no-enzyme control)
% Remaining in ClbP Negative Relative to Media-Only (E. coli BL21(DE3)): + (between 25-75% compound remaining in the 20 μM WT ClbP reaction relative to the no-enzyme control)

CCc1c2c(nc3ccc(O)cc13)-c1cc3c(c(=O)n1C2)COC(=O)[C@]3(O)CC [SN-38, 7-ethyl-10-hydroxy-camptothecin, reference compound]
Bacteria-free media (Luminescence, average of three runs) (CT26.CL25 cells; 10 nM compound, CT26.CL25 cells, CellTiter-Glo): 121387

CCCCCCCC(=O)N[C@H](CC(N)=O)C(=O)NCCNC [(R)—N1-(2-(methylamino)ethyl)-2-octanamidosuccinamide, reference compound]
Bacteria-free media (Luminescence, average of three runs) (CT26.CL25 cells; 0.01 µM): 278313

COC(=O)[C@H](C)NC(=O)[C@@H](CC(N)=O)NC(=O)c1ccccc1O [Example 16, Methyl (2-hydroxybenzoyl)-D-asparaginyl-L-alaninate]
Assay 1 (SGF) (% Remaining @ 1 hours) [3]: C (>75% of the tested compound remaining)
Assay 3 (% Remaining at 24 h) [1]: B (25-75% of the tested compound remaining)
Assay 2 (SIF) (% @ Remaining 4 hours) [4]: A (<25% of the tested compound remaining)
% Remaining in ClbP Positve Relative to Media-Only [2]: + (between 25-75% compound remaining in the 20 μM WT ClbP reaction relative to the no-enzyme control)
% Remaining in ClbP Negative Relative to Media-Only (E. coli BL21(DE3)): + (between 25-75% compound remaining in the 20 μM WT ClbP reaction relative to the no-enzyme control)

COC(=O)[C@H](C)NC(=O)[C@@H](CC(N)=O)NC(=O)c1ccccc1 [Example 13, Methyl benzoyl-D-asparaginyl-L-alaninate] (Bz-[dN]-Ala-OMe)
Status (compound remaining in WT ClbP reaction relative to no-enzyme control) (WT ClbP; 100 μM compound): ++ (<25% compound remaining in the 20 μM WT ClbP reaction relative to the control)
Assay 3 (% Remaining at 24 h) [1]: C (>75% of the tested compound remaining)
% Remaining in ClbP Positve Relative to Media-Only [2]: ++ (<25% compound remaining in the 20 μM WT ClbP reaction relative to the control)
Difference between the ClbP Positive and ClbP Negative release profiles ([2]; conclusion from Table 4): particularly favorable difference
% Remaining in ClbP Negative Relative to Media-Only (E. coli BL21(DE3)): + (between 25-75% compound remaining in the 20 μM WT ClbP reaction relative to the no-enzyme control)
